Experimental data taken from paper PMC8470823, “8-Amino-6-Methoxyquinoline—Tetrazole Hybrids: Impact of Linkers on Antiplasmodial Activity” (Molecules, 2021).
Read-outs that look alike come from different tables or passages of the source.

Assays:
P. falciparum NF54 = experiment: In vitro microplate assay against P. falciparum (3H-hypoxanthine incorporation); type: cell-based, Plasmodium falciparum; settings: for S.I. = IC50 (Cyt.)/IC50 (P.f. NF54): selectivity index: L-6 cells IC50 / P.f. NF54 IC50
Method: Chloroquine (Sigma C6628) was used as standard. Compounds were dissolved in DMSO at 10 mg/mL and added to parasite cultures incubated in RPMI 1640 medium without hypoxanthine, supplemented with HEPES (5.94 g/L), NaHCO3 (2.1 g/L), neomycin (100 U/mL), Albumax (5 g/L) and washed human red cells A^+ at 2.5% hematocrit (0.3% parasitemia). Serial drug dilutions of 11 3-fold dilution steps covering a range from 100 to 0.002 μg/mL were prepared. […] After 48 h, 0.05 mL of ^3H-hypoxanthine (=0.5 μCi) was added to each well of the plate. The plates were incubated for a further 24 h under the same conditions. The plates were then harvested with a Betaplate cell harvester (Wallac, Zurich, Switzerland). The red blood cells were transferred onto a glass fiber filter and washed with distilled water. The dried filters were inserted into a plastic foil with 10 mL of scintillation fluid and counted in a Betaplate liquid scintillation counter (Wallac, Zurich, Switzerland). IC50 values were calculated from sigmoidal inhibition curves by linear regression using Microsoft Excel. Artemisinin and chloroquine were used as control.

[1] = In vitro cytotoxicity with L-6 cells (Alamar Blue); type: cell-based, rat
Method: (§1) Serial drug dilutions of 11 3-fold dilution steps covering a range from 100 to 0.002 μg/mL were prepared. After 70 h of incubation, the plates were inspected under an inverted microscope to assure the growth of the controls and sterile conditions. Then, 0.01 mL of Alamar Blue was added to each well and the plates incubated for another 2 h. The plates were read with a Spectramax Gemini XS microplate fluorometer (Molecular Devices Cooperation, Sunnyvale, CA, USA) using an excitation wavelength of 536 nm and an emission wavelength of 588 nm. The IC50 values were calculated by linear regression from the sigmoidal dose inhibition curves using SoftmaxPro software (Molecular Devices Cooperation, Sunnyvale, CA, USA). Podophyllotoxin (Sigma P4405) was used as control.

L-6 cells = experiment: In vitro cytotoxicity with L-6 cells (Alamar Blue); type: cell-based, rat
Method: as §1

[2] = Plasmodium falciparum, chloroquine-sensitive strain NF54, erythrocytic stages, average of four determinations, read-out: P.f. NF54 IC50
[3] = rat, Cytotoxicity L-6 Cells IC50
[4] = rat skeletal myoblasts, average of four determinations, read-out: Cytotoxicity L-6 Cells IC50

Row | Molecule | IC50 (P. falciparum NF54; [2]) | IC50 at 72 h [1, 3] | S.I. = IC50 (Cyt.)/IC50 (P.f. NF54) (P. falciparum NF54) | other results
1 | COc1cc(NC(c2ccc(C(C)C)cc2)c2nnnn2C(C)(C)C)c2ncccc2c1 (stereo not drawn) [Compound 20, 6-Methoxy-N-((4-(propan-2-yl)phenyl)(1-tert-butyl-1H-tetrazol-5-yl)methyl)quinolin-8-amine] | 2 µM | 119 to 124 µM |  | IC50 (L-6 cells; rat, 72 h): 119 µM
2 | COc1cc(NC(c2ccc(F)cc2)c2nnnn2C(C)(C)C)c2ncccc2c1 (stereo not drawn) [Compound 15, N-((4-Fluorophenyl)(1-tert-butyl-1H-tetrazol-5-yl)methyl)-6-methoxyquinolin-8-amine] | 2.68 µM | 119 to 124 µM |  | IC50 (L-6 cells; rat, 72 h): 124 µM
3 | COc1cc(NC(c2ccccc2)c2nnnn2C(C)(C)C)c2ncccc2c1 (stereo not drawn) [Compound 14, 6-Methoxy-N-((phenyl)(1-tert-butyl-1H-tetrazol-5-yl)methyl)quinolin-8-amine] | 5.12 µM | 49 µM | 9.56 | 
4 | COc1cc(NC(c2ccc(C(F)(F)F)cc2)c2nnnn2C(C)(C)C)c2ncccc2c1 (stereo not drawn) [Compound 18, 6-Methoxy-N-((1-tert-butyl-1H-tetrazol-5-yl)(4-(trifluoromethyl)phenyl)methyl)quinolin-8-amine] | 0.644 µM | 176 µM | 273.3 | 
5 | COc1cc(NC(c2ccc(C)cc2)c2nnnn2C(C)(C)C)c2ncccc2c1 (stereo not drawn) [Compound 19, 6-Methoxy-N-((4-methylphenyl)(1-tert-butyl-1H-tetrazol-5-yl)methyl)quinolin-8-amine] | 1.04 µM | 248 µM | 238.9 | 
6 | N^1-(6-Methoxyquinolin-8-yl)-N^2-((tert-butyl-1H-tetrazol-5-yl)(2-(trifluoromethyl)phenyl) methyl)-ethan-1,2-diamine [Compound 12] |  |  | 7.64 | IC50 (P. falciparum NF54; chloroquine-sensitive strain NF54, erythrocytic stages, average of four determinations, read-out: P.f. NF54 IC50): 2.92 µM; IC50 (L-6 cells): 22.3 µM
7 | CCC(NCCNc1cc(OC)cc2cccnc12)c1nnnn1C(C)(C)C (stereo not drawn) [Compound 7, N^1-(6-Methoxyquinolin-8-yl)-N^2-(1-(tert-butyl-1H-tetrazol-5-yl)propyl)ethan-1,2-diamine] | 16 µM | 144 µM |  | 
8 | COc1cc(NCCNC(c2ccc(Cl)cc2)c2nnnn2C(C)(C)C)c2ncccc2c1 (stereo not drawn) [Compound 10, N^1-((4-Chlorophenyl)(tert-butyl-1H-tetrazol-5-yl)methyl)-N^2-(6-methoxyquinolin-8-yl)ethan-1,2-diamine] | 5.34 µM | 92.3 µM | 17.29 | 
9 | COc1cc(NC(c2ccc(Br)cc2)c2nnnn2C(C)(C)C)c2ncccc2c1 (stereo not drawn) [Compound 17, N-((4-Bromophenyl)(1-tert-butyl-1H-tetrazol-5-yl)methyl)-6-methoxyquinolin-8-amine] | 0.464 µM | 96.9 µM | 208.8 | 
10 | COc1cc(NCCNC(c2ccc(Br)cc2)c2nnnn2C(C)(C)C)c2ncccc2c1 (stereo not drawn) [Compound 11, N^1-((4-Bromophenyl)(tert-butyl-1H-tetrazol-5-yl)methyl)-N^2-(6-methoxyquinolin-8-yl)ethan-1,2-diamine] | 2.51 µM | 34.1 µM | 13.57 | 
11 | CCC(Nc1cc(OC)cc2cccnc12)c1nnnn1C(C)(C)C (stereo not drawn) [Compound 13, 6-Methoxy-N-(1-(1-tert-butyl-1H-tetrazol-5-yl)propyl)quinolin-8-amine] | 23.6 µM | 91.1 µM | 3.86 | 
12 | COc1cc(NC(c2ccc(Cl)cc2)c2nnnn2C(C)(C)C)c2ncccc2c1 (stereo not drawn) [Compound 16, N-((4-Chlorophenyl)(1-tert-butyl-1H-tetrazol-5-yl)methyl)-6-methoxyquinolin-8-amine] | 0.743 µM | 236 µM | 318.3 | 
13 | COc1cc([C@@H]2c3cc4c(cc3[C@H](O)[C@H]3COC(=O)[C@H]23)OCO4)cc(OC)c1OC [POD, podophyllotoxin, reference compound] |  |  |  | IC50 (L-6 cells; [4]): 0.012 µM
14 | CCN(CC)CCCC(C)Nc1ccnc2cc(Cl)ccc12 (stereo not drawn) [CQ, chloroquine, reference compound] |  |  | 23,313 | IC50 (P. falciparum NF54; Plasmodium falciparum, NF54, read-out: P.f. NF54 IC50): 0.0039 µM; IC50 at 72 h [1, 4]: 90.9 µM
15 | COc1cc(NCCNC(c2ccc(F)cc2)c2nnnn2C(C)(C)C)c2ncccc2c1 (stereo not drawn) [Compound 9, N^1-((4-Fluorophenyl)(tert-butyl-1H-tetrazol-5-yl)methyl)-N^2-(6-methoxyquinolin-8-yl)ethan-1,2-diamine] | 7.05 µM | 55.4 µM | 7.86 | 
16 | CCCCCCCC(Nc1cc(OC)cc2cccnc12)c1nnnn1C(C)(C)C (stereo not drawn) [Compound 22, 6-Methoxy-N-(1-(1-tert-butyl-1H-tetrazol-5-yl)octyl)quinolin-8-amine] | 0.324 µM | 54.7 µM | 168.9 | 
17 | COc1cc(NCCNC(c2ccccc2)c2nnnn2C(C)(C)C)c2ncccc2c1 (stereo not drawn) [Compound 8, N^1-(6-Methoxyquinolin-8-yl)-N^2-((phenyl)(tert-butyl-1H-tetrazol-5-yl)methyl)ethan-1,2-diamine] | 6.09 µM | 58 µM | 9.52 | 
18 | COc1cc(NC(c2cccc3ccccc23)c2nnnn2C(C)(C)C)c2ncccc2c1 (stereo not drawn) [Compound 21, 6-Methoxy-N-((naphthalen-1-yl)(1-tert-butyl-1H-tetrazol-5-yl)methyl)quinolin-8-amine] | 1.26 µM | 173 µM | 137.6 | 
